The results in this text go back to PubChem BioAssay AID1259407 (Chemical Carcinogenesis Research Information System (CCRIS), 2018).

Active and inactive are the calls of the source. How the calls were made is not given here.

In the data set the test system is CCRIS mutagenicity, Ames/micronucleus/aberration tests. Kind of data set: CCRIS mutagenicity studies.
Where [1] appears, read: Test System: AMES SALMONELLA TYPHIMURIUM, Strain/Indicator: TA98, Metabolic Activation: NONE, Method: PREINCUBATION
Where [2] appears, read: Test System: AMES SALMONELLA TYPHIMURIUM, Strain/Indicator: TA100, Metabolic Activation: NONE, Method: PREINCUBATION
The mark [3] stands for this setting: Test System: AMES SALMONELLA TYPHIMURIUM, Strain/Indicator: TA102, Metabolic Activation: NONE, Method: PREINCUBATION

Take `CCOC(C)=O`: the mutagenic call runs as follows: (End Point: IN VITRO CHROMOSOMAL ABERRATIONS, Test System: CHO-LB CELLS, Metabolic Activation: NONE) “inactive; negative”; (End Point: IN VITRO CHROMOSOMAL ABERRATIONS, Test System: CHO-LB CELLS, Metabolic Activation: RAT, LIVER, S-9, AROCLOR 1254) “inactive; negative”; (End Point: IN VIVO MICRONUCLEUS, Test System: BONE MARROW POLYCHROMATIC ERYTHROCYTES, Species: MOUSE, Strain/Sex: DDY/MALE, Route: IP) “inactive; negative”; (Test System: AMES SALMONELLA TYPHIMURIUM, Strain/Indicator: TA97, Metabolic Activation: HAMSTER, LIVER, S-9, AROCLOR 1254 (10 OR 30%), Method: PREINCUBATION) “inactive; negative”; (Test System: AMES SALMONELLA TYPHIMURIUM, Strain/Indicator: TA97, Metabolic Activation: NONE, Method: PREINCUBATION) “inactive; negative”; (Test System: AMES SALMONELLA TYPHIMURIUM, Strain/Indicator: TA97, Metabolic Activation: RAT, LIVER, S-9, AROCLOR 1254 (10 OR 30%), Method: PREINCUBATION) “inactive; negative”. Moreover, the mutagenic call by setting is: (Test System: AMES SALMONELLA TYPHIMURIUM, Strain/Indicator: TA98, Metabolic Activation: HAMSTER, LIVER, S-9, AROCLOR 1254 (10 OR 30%), Method: PREINCUBATION) “inactive; negative”; under setting [1], “inactive; negative”; (Test System: AMES SALMONELLA TYPHIMURIUM, Strain/Indicator: TA98, Metabolic Activation: RAT, LIVER, S-9, AROCLOR 1254 (10 OR 30%), Method: PREINCUBATION) “inactive; negative”; (Test System: AMES SALMONELLA TYPHIMURIUM, Strain/Indicator: TA98, Metabolic Activation: RAT, LIVER, S-9, PHENOBARBITAL AND BETA-NAPHTHOFLAVONE, Method: PREINCUBATION) “inactive; negative”; (Test System: AMES SALMONELLA TYPHIMURIUM, Strain/Indicator: TA100, Metabolic Activation: HAMSTER, LIVER, S-9, AROCLOR 1254 (10 OR 30%), Method: PREINCUBATION) “inactive; negative”; under setting [2], “inactive; negative”. Moreover, the mutagenic call is, setting by setting: (Test System: AMES SALMONELLA TYPHIMURIUM, Strain/Indicator: TA100, Metabolic Activation: RAT, LIVER, S-9, AROCLOR 1254 (10 OR 30%), Method: PREINCUBATION) “inactive; negative”; (Test System: AMES SALMONELLA TYPHIMURIUM, Strain/Indicator: TA100, Metabolic Activation: RAT, LIVER, S-9, PHENOBARBITAL AND BETA-NAPHTHOFLAVONE, Method: PREINCUBATION) “inactive; negative”; under setting [3], “inactive; negative”; (Test System: AMES SALMONELLA TYPHIMURIUM, Strain/Indicator: TA102, Metabolic Activation: RAT, LIVER, S-9, PHENOBARBITAL AND BETA-NAPHTHOFLAVONE, Method: PREINCUBATION) “inactive; negative”; (Test System: AMES SALMONELLA TYPHIMURIUM, Strain/Indicator: TA104, Metabolic Activation: NONE, Method: PREINCUBATION) “inactive; negative”; (Test System: AMES SALMONELLA TYPHIMURIUM, Strain/Indicator: TA104, Metabolic Activation: RAT, LIVER, S-9, PHENOBARBITAL AND BETA-NAPHTHOFLAVONE, Method: PREINCUBATION) “inactive; negative”. Besides, the mutagenic call reads like this: (Test System: AMES SALMONELLA TYPHIMURIUM, Strain/Indicator: TA1535, Metabolic Activation: HAMSTER, LIVER, S-9, AROCLOR 1254 (10 OR 30%), Method: PREINCUBATION) “inactive; negative”; (Test System: AMES SALMONELLA TYPHIMURIUM, Strain/Indicator: TA1535, Metabolic Activation: NONE, Method: PREINCUBATION) “inactive; negative”; (Test System: AMES SALMONELLA TYPHIMURIUM, Strain/Indicator: TA1535, Metabolic Activation: RAT, LIVER, S-9, AROCLOR 1254 (10 OR 30%), Method: PREINCUBATION) “inactive; negative”; (Test System: AMES SALMONELLA TYPHIMURIUM, Strain/Indicator: TA1535, Metabolic Activation: RAT, LIVER, S-9, PHENOBARBITAL AND BETA-NAPHTHOFLAVONE, Method: PREINCUBATION) “inactive; negative”; (Test System: AMES SALMONELLA TYPHIMURIUM, Strain/Indicator: TA1537, Metabolic Activation: HAMSTER, LIVER, S-9, AROCLOR 1254 (30%), Method: PREINCUBATION) “inactive; negative”; (Test System: AMES SALMONELLA TYPHIMURIUM, Strain/Indicator: TA1537, Metabolic Activation: NONE, Method: PREINCUBATION) “inactive; negative”. Moreover, the mutagenic call reads like this: (Test System: AMES SALMONELLA TYPHIMURIUM, Strain/Indicator: TA1537, Metabolic Activation: RAT, LIVER, S-9, AROCLOR 1254 (30%), Method: PREINCUBATION) “inactive; negative”; (Test System: AMES SALMONELLA TYPHIMURIUM, Strain/Indicator: TA1537, Metabolic Activation: RAT, LIVER, S-9, PHENOBARBITAL AND BETA-NAPHTHOFLAVONE, Method: PREINCUBATION) “inactive; negative”; (Test System: E. COLI, Strain/Indicator: WP2UVRA/PKM101, Metabolic Activation: NONE, Method: PREINCUBATION) “inactive; negative”; (Test System: E. COLI, Strain/Indicator: WP2UVRA/PKM101, Metabolic Activation: RAT, LIVER, S-9, PHENOBARBITAL AND BETA-NAPHTHOFLAVONE, Method: PREINCUBATION) “inactive; negative”; (Test System: E. COLI, Strain/Indicator: WP2UVRA, Metabolic Activation: NONE, Method: PREINCUBATION) “inactive; negative”; (Test System: E. COLI, Strain/Indicator: WP2UVRA, Metabolic Activation: RAT, LIVER, S-9, PHENOBARBITAL AND BETA-NAPHTHOFLAVONE, Method: PREINCUBATION) “inactive; negative”.
Consider `CCCCB(CCCC)CCCC`, for which the mutagenic call (Test System: AMES SALMONELLA TYPHIMURIUM, Strain/Indicator: TA98, Metabolic Activation: HAMSTER, LIVER, S-9, AROCLOR 1254, Method: STANDARD PLATE) was “active; positive”; the mutagenic call (Test System: AMES SALMONELLA TYPHIMURIUM, Strain/Indicator: TA98, Metabolic Activation: RAT, LIVER, S-9, AROCLOR 1254, Method: STANDARD PLATE) is “active; positive”; the mutagenic call (Test System: AMES SALMONELLA TYPHIMURIUM, Strain/Indicator: TA100, Metabolic Activation: HAMSTER, LIVER, S-9, AROCLOR 1254, Method: STANDARD PLATE) is “active; positive”; the mutagenic call (Test System: MOUSE LYMPHOMA, Strain/Indicator: L5178Y (TK+/TK-), Metabolic Activation: NONE, Method: SUSPENSION/PLATE) is “inactive; negative. reevaluation of results: negative”; the mutagenic call (Test System: MOUSE LYMPHOMA, Strain/Indicator: L5178Y (TK+/TK-), Metabolic Activation: RAT, LIVER, S-9, AROCLOR 1254, Method: SUSPENSION/PLATE) was “inactive; negative. reevaluation of results: negative”.
With `CC(C)=C(Cl)C=O`, the mutagenic call (Test System: AMES SALMONELLA TYPHIMURIUM, Strain/Indicator: TA98, Metabolic Activation: NONE, Method: PREINCUBATION, LIQUID INCUBATION) was “inactive; negative”; the mutagenic call (Test System: AMES SALMONELLA TYPHIMURIUM, Strain/Indicator: TA100, Metabolic Activation: NONE, Method: LIQUID INCUBATION) is “active; positive”; the mutagenic call (Test System: AMES SALMONELLA TYPHIMURIUM, Strain/Indicator: TA100, Metabolic Activation: NONE, Method: PREINCUBATION, LIQUID INCUBATION) is “active; positive”; the mutagenic call (Test System: AMES SALMONELLA TYPHIMURIUM, Strain/Indicator: TA1538, Metabolic Activation: NONE, Method: PREINCUBATION, LIQUID INCUBATION) was “inactive; negative”.
With `Cc1cnc(C)cn1`, the mutagenic call is “inactive; negative” under setting [1]; “inactive; negative” (Test System: AMES SALMONELLA TYPHIMURIUM, Strain/Indicator: TA98, Metabolic Activation: RAT, LIVER, S-9, AROCLOR 1254, Method: PREINCUBATION); “inactive; negative” under setting [2]; “inactive; negative” (Test System: AMES SALMONELLA TYPHIMURIUM, Strain/Indicator: TA100, Metabolic Activation: RAT, LIVER, S-9, AROCLOR 1254, Method: PREINCUBATION); “inactive; negative” under setting [3]; “inactive; negative” (Test System: AMES SALMONELLA TYPHIMURIUM, Strain/Indicator: TA102, Metabolic Activation: RAT, LIVER, S-9, AROCLOR 1254, Method: PREINCUBATION).
